Here are results for two molecules from patent US20230374141A1, “COMBINATION THERAPY FOR ALPORT RENAL DISEASE” (Father Flanagan's Boys' Home Doing Business as Boys Town …, priority 2020, published 2023).

No end group written: not given here. Some results are limits rather than exact numbers.

One experiment concerns mesangial cells. Description: Filopodia formation in cultured mesangial cells. The format is cell-based. An excerpt:
Thus, it appears that the al-null mesangial cells are refractive to activation of CDC42, which is consistent with the markedly attenuated effect on mesangial filopodial invasion, explaining why al integrin blockade attenuates ECM-mediated podocyte injury.

In experiment [1] the test system is al integrin null Alport (DKO) mice. Kind of experiment: Lifespan of ramipril-treated α1 integrin null Alport (DKO) mice. The experiment is classed as in vivo. The procedure:
(§1) Autosomal Alport mice or al integrin null Alport (DKO) mice (both on the 129 Sv background) were given straight water or treated with ramipril (10 mg/kg/day in drinking water) starting at 3 weeks of age. Proteinuria (FIG. 1) and lifespan (FIG. 2) were measured. We were surprised to see the improvement of lifespan from 20 weeks in ramipril-treated Alport mice to >30 weeks in ramipril-treated DKO mice. Tripling the lifespan of the Alport mouse model (which lives to on average 10 weeks of age as is evident in FIG. 2) is unprecedented in the Alport field. Integrin α1-null Alport (DKO) mice treated with ramipril live twice as long as untreated DKO mice and 3 times as long as untreated Alport mice. Animals from the indicated treatment groups were allowed to live until they lost >10% of their peak body weight and then euthanized (a humane endpoint, considered age of death). DKO mice show a 60% increase in lifespan. […] If translated to humans (as did ramipril treatment starting at a young age) this therapy could portend survival to 60-70 years of age for Alport patients with severe mutations.

Experiment [2] deals with DKO mice. Description: Dual immunofluorescence of glomeruli for mesangial proteins in the GBM of DKO mice. The experiment is classed as in vivo. An excerpt:
FIGS. 3A-3F are color dual immunofluorescence confocal images of glomeruli stained with antibodies against laminin α5 (a GBM marker) and laminin α2. FIGS. 3A-3C are untreated DKO mice. FIGS. 3D-3F are DKO mice treated with Ramipril. FIGS. 3A and 3D show laminin α5 data. FIGS. 3B and 3E show laminin α2 data. FIGS. 3C and 3F show a merge of the laminin α5 and laminin α2 data.
FIGS. 4A-4F are color dual immunofluorescence confocal images of glomeruli stained with antibodies against nidogen (a GBM marker) and collagen III. FIGS. 4A-4C are untreated DKO mice. FIGS. 4D-4F are DKO mice treated with Ramipril. FIGS. 4A and 4D show nidogen data. FIGS. 4B and 4E show collagen 3 α1 data. FIGS. […] show a merge of the nidogen and collagen 3 α1 data.
This evidence has obvious and important translational value. By preventing the invasion of the glomerular capillaries by mesangial filopodia, the deposition of mesangial proteins in the GBM is prevented. This prevents podocyte injury that is caused by the mesangial matrix.
If the ECM deposition in the GBM is indeed a significant contributor to glomerular pathology we would expect it would be delayed in the ramipril-treated DKO mice. To determine if this was indeed the case, we performed immunohistochemical analysis for laminin 211 dual stained with the GBM marker laminin α5. Specifically, Duan immunofluorescence analysis was performed on cryosections from 20 and 25 week old DKO/ramipril mice. Sections were immunostained using antibodies for laminin 211 and laminin α5 (a GBM marker). […] Between 20 and 25 weeks of age, however, GBM localization of laminin 211 became widespread as depicted in FIGS. 6A-6F. FIGS. 6A-6C are the 20-week data and FIGS. 6D-6F are the 25-week data.

Another experiment relates to Autosomal Alport mice. Kind of experiment: Lifespan of ramipril-treated autosomal Alport mice. Conditions: ramipril 10 mg/kg/day in drinking water from 3 weeks of age, 129 Sv, humane endpoint >10% loss of peak body weight. The experiment is classed as in vivo. The procedure:
as §1

For a further experiment, the system named is α1 null Alport mice. Kind of experiment: Proteinuria (Bradford assay, normalized to urinary creatinine) in α1 null Alport mice. The format is in vivo. Conditions: ramipril-treated vs untreated α1-null Alport mice; total protein normalized to urinary creatinine. On the procedure:
FIG. 1. […] Urine was collected from the indicated treatment groups at the indicated ages. Total protein was measured by Bradford assay and normalized to urinary creatinine.
as §1

For experiment [3], the system named is DKO mice. Kind of experiment: Glomerular filtration rate, MediBeacon transdermal LED approach, DKO mice. The experiment is classed as in vivo. Conditions: ramipril-treated DKO mice, 25 weeks relative to 20 weeks of age; two mice. On the procedure: Glomerular filtration rates (GFR) were measured using the MediBeacon (St Louis, MO) transdermal LED approach, which allows serial measurements to be conducted in the same animals. […] Serial GFR measures were made using two ramipril-treated DKO mice. GFR measures were at 20 and 25 weeks of age. Additional mice at additional timepoints of measure (to 30 weeks) will be added as part of the research plan to establish statistical significance.

The mark [4] stands for this setting: ramipril-treated DKO mice at 10 weeks of age, untreated DKO had a significant amount.

“endothelin-1: stimulus of filopodial formation in mesangial cells (CSCSSLMDKECVYFCHLDIIW; ends and bridges not checked; cysteine pairing not given here; UniProt P05305 53-73, looked up)”: the formation of filopodia entry in the experiment with mesangial cells (wild type mesangial cells) is on record as “activates the formation of filopodia”; with mesangial cells (α1-null mesangial cells), “do not respond”.

Consider `CCOC(=O)[C@H](CCc1ccccc1)N[C@@H](C)C(=O)N1[C@H](C(=O)O)C[C@@H]2CCC[C@@H]21` [ramipril], for which the “lifespan (age of death)” value in experiment [1] (ramipril 10 mg/kg/day in drinking water from 3 weeks of age, α1 integrin null Alport (DKO) mice, 129 Sv) is recorded as more than 30 weeks. Besides, in experiment [1] (ramipril-treated DKO mice), the “lifespan relative to untreated Alport mice” value is 3 times and the “lifespan relative to untreated DKO mice” value is recorded as “twice as long”. In addition, in the experiment on DKO mice [2] (setting [4]), the “collagen III in the GBM” value was “no laminin 211 or collagen III in the GBM” and the “laminin 211 in the GBM” value is given as “no laminin 211 or collagen III in the GBM”. The “GBM accumulation of laminin 211” value in the experiment on DKO mice [2] (ramipril-treated DKO mice, before 20 weeks of age) was “did not observe any significant GBM accumulation”. The “GBM localization of laminin 211” value in the experiment on DKO mice [2] (ramipril-treated DKO mice, between 20 and 25 weeks of age) is “widespread”. Moreover, the “lifespan (age of death)” value in the experiment on Autosomal Alport mice stood at 20 weeks. Moreover, in the experiment on α1 null Alport mice, the proteinuria result was “markedly reduced”. Moreover, the GFR result in the experiment with DKO mice [3] is given as “marked reduction”.
